Here are results for 4 compounds from ChEMBL document CHEMBL1201862, “PubChem BioAssay data set” (2004).

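A five-concentration, 48-hour dose response in 96-well plates underlies each endpoint, interpolated linearly between surrounding concentrations. GI50 = concentration required for 50% inhibition of growth.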 Active and inactive are the calls of the source. No stated cut-off is given here; in the data, active = GI50 up to about 1.1 µM and inactive = higher.

Among the test systems are A498; ACHN; CAKI-1; HL-60; HOP-92; Hs-578T; MCF7; MDA-MB-231; MOLT-4; NCI-H460; OVCAR-5; PC-3; RPMI-8226; SK-MEL-28; SK-OV-3; SR; SW-620; UACC-62; UO-31.
Assay in all cases: growth of human tumour cells (NCI), 48 h

For the compound `Cc1ccc2c(=O)cc(-c3ccc(-c4ccccc4)s3)[nH]c2n1`, the GI50 is 14.2 µM (inactive) in the experiment with A498; > 100 µM (inactive) in the experiment with ACHN; 45 µM (inactive) in the experiment with CAKI-1; > 23.6 µM (inactive) in the experiment with HL-60; > 41.2 µM (inactive) in the experiment on HOP-92; > 46.7 µM (inactive) with Hs-578T. Further, the GI50 is 3.27 µM (inactive) in the experiment with MCF7; 39.7 µM (inactive) with MDA-MB-231; 4.18 µM (inactive) in the experiment with MOLT-4; > 59.7 µM (inactive) in the experiment on NCI-H460; > 100 µM (inactive) with OVCAR-5; 6.03 µM (inactive) with PC-3. Also, the GI50 in the experiment on RPMI-8226 was 4.53 µM (inactive); in the experiment with SK-MEL-28, > 100 µM (inactive); with SK-OV-3 it was 44.5 µM (inactive); with SR, 2.43 µM (inactive); with SW-620 it was > 31.5 µM (inactive); in the experiment with UACC-62 it was 17 µM (inactive). Further, in the experiment on UO-31, the GI50 was 0.0305 µM (active).

Regarding `c1ccc(NN(Cc2cnccn2)c2ccccc2)cc1`, the GI50 with A498 was 28.8 µM (inactive); with ACHN it was > 100 µM (inactive); with CAKI-1, > 100 µM (inactive); in the experiment with HL-60, 67.5 µM (inactive); with HOP-92, 19.1 µM (inactive); in the experiment with Hs-578T, > 100 µM (inactive). Moreover, the GI50 is 44.9 µM (inactive) in the experiment on MCF7; 76.9 µM (inactive) in the experiment with MDA-MB-231; 42.3 µM (inactive) in the experiment on MOLT-4; 91.8 µM (inactive) in the experiment with NCI-H460; > 100 µM (inactive) in the experiment on OVCAR-5; 65.8 µM (inactive) in the experiment on PC-3. Further, the GI50 with RPMI-8226 is 55.7 µM (inactive); with SK-MEL-28, > 100 µM (inactive); in the experiment with SK-OV-3, > 100 µM (inactive); with SR it was 61.9 µM (inactive); in the experiment on SW-620, > 100 µM (inactive); in the experiment on UACC-62, 81.8 µM (inactive).

For `COC1CC(C)(NC(C)=O)C2OC(c3ccccc3)OCC2O1` (centres undefined), the GI50 in the experiment with A498, in the experiment with ACHN, with CAKI-1, in the experiment with HL-60, with HOP-92 and with Hs-578T was > 100 µM (inactive) each time. Besides, the GI50 with MCF7, in the experiment on MDA-MB-231, with MOLT-4, in the experiment on NCI-H460, in the experiment with OVCAR-5 and in the experiment with PC-3 was > 100 µM (inactive) each time. Also, the GI50 with RPMI-8226, with SK-MEL-28, in the experiment on SK-OV-3, with SR, in the experiment with SW-620 and with UACC-62 was > 100 µM (inactive) each time. Also, in the experiment on UO-31, the GI50 is > 100 µM (inactive).

With `CC(C)c1ccccc1[S+]([O-])c1ccccc1C(C)(C)O` (centres undefined), the GI50 in the experiment with A498 is 20 µM (inactive); in the experiment with ACHN, > 100 µM (inactive); with CAKI-1, > 100 µM (inactive); with HL-60 it was 82.6 µM (inactive); in the experiment on HOP-92, > 100 µM (inactive); with Hs-578T it was 50.4 µM (inactive). In addition, the GI50 in the experiment on MCF7 was > 100 µM (inactive); in the experiment with MDA-MB-231, 88.9 µM (inactive); with MOLT-4, > 100 µM (inactive); in the experiment with NCI-H460, 30.8 µM (inactive); in the experiment with OVCAR-5, 56.2 µM (inactive); with PC-3 it was > 100 µM (inactive). In addition, the GI50 in the experiment with RPMI-8226 is 42.6 µM (inactive); in the experiment on SK-MEL-28 it was > 100 µM (inactive); in the experiment with SK-OV-3, 30.9 µM (inactive); with SR, > 100 µM (inactive); in the experiment on SW-620, > 100 µM (inactive); in the experiment with UACC-62, > 100 µM (inactive).
